Assay [1] deals with hJAK2 (Homo sapiens (Human), UniProt O60674). The assay can be described thus: hJAK2 LANCE TR-FRET enzymatic assay. The format is biochemical. Conditions: read-out: JAK2 IC50.
The target in assay [2] is TBK1 (Homo sapiens (Human), UniProt Q9UHD2). The assay can be described thus: TBK1 TR-FRET enzymatic assay.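 Note: phosphorylation of a biotinylated Ser/Thr peptide by purified full-length recombinant TBK1, read by TR-FRET after 240 min at 25 °C, IC50 is the geometric mean of at least four runs.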
Assay [3] has as its target IKKε (Homo sapiens (Human), UniProt Q14164). The assay can be described thus: IKKε TR-FRET enzymatic assay. In kind it is biochemical. Conditions: TR-FRET, 2×Km ATP; geometric mean of minimum four determinations; read-out: IKKe IC50. On the technique in general: In TR-FRET formats the signal depends on donor and acceptor labels being close together.

This is an account of results in patent US10040781B2, “Tank-binding kinase inhibitor compounds” (Gilead Sciences, Inc., priority 2014, dated 2018).

For orientation: pIC50 means the negative decadic logarithm of the IC50, by convention in mol/L.

pIC50: −log10 of the molar value.

Chain of TBK1 (Q9UHD2 whole entry): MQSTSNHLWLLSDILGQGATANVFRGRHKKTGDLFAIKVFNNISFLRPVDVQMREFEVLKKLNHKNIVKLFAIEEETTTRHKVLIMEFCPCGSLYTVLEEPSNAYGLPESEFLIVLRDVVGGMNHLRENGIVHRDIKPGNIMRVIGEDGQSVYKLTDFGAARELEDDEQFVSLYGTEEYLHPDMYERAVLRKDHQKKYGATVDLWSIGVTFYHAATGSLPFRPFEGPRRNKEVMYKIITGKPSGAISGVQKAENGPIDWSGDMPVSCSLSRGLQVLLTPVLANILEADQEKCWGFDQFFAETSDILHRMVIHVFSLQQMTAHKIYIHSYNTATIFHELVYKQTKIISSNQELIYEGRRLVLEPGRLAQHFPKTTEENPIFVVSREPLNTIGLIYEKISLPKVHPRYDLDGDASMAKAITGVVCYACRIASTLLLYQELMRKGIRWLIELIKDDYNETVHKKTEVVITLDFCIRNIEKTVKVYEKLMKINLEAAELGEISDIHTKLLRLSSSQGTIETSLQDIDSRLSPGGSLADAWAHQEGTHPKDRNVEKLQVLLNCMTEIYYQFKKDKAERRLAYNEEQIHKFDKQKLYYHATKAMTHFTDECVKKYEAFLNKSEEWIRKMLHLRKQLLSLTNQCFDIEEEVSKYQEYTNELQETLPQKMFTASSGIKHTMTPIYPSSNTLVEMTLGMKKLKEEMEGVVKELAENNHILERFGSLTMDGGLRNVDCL
Chain of hJAK2 (O60674 whole entry): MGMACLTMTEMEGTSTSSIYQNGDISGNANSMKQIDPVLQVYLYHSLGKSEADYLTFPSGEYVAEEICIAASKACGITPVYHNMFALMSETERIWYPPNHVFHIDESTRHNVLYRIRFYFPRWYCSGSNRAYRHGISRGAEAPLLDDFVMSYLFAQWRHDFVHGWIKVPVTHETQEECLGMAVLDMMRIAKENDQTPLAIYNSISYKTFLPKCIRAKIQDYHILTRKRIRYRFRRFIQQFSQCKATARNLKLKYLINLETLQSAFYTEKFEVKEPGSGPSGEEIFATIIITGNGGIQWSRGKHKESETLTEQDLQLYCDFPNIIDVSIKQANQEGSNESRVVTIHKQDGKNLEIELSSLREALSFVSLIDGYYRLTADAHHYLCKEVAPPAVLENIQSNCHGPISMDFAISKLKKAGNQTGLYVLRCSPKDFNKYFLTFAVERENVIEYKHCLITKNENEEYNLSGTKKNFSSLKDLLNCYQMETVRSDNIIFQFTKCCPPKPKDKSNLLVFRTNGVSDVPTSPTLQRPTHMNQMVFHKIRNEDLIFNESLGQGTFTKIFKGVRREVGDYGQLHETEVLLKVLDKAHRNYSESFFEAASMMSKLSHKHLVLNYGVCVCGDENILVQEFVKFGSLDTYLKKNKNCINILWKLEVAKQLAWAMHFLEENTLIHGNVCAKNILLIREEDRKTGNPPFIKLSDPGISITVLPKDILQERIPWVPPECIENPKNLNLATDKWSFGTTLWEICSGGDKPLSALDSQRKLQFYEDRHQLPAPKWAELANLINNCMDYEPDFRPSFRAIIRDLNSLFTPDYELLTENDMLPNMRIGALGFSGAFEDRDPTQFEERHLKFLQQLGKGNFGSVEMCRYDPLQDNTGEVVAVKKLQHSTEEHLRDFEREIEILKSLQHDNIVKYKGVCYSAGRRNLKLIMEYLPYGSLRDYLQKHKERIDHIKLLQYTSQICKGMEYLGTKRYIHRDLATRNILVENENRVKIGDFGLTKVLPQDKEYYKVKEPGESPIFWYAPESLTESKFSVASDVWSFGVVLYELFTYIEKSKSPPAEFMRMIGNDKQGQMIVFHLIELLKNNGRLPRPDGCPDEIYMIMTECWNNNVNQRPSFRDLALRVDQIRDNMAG
Chain of IKKε (Q14164 whole entry): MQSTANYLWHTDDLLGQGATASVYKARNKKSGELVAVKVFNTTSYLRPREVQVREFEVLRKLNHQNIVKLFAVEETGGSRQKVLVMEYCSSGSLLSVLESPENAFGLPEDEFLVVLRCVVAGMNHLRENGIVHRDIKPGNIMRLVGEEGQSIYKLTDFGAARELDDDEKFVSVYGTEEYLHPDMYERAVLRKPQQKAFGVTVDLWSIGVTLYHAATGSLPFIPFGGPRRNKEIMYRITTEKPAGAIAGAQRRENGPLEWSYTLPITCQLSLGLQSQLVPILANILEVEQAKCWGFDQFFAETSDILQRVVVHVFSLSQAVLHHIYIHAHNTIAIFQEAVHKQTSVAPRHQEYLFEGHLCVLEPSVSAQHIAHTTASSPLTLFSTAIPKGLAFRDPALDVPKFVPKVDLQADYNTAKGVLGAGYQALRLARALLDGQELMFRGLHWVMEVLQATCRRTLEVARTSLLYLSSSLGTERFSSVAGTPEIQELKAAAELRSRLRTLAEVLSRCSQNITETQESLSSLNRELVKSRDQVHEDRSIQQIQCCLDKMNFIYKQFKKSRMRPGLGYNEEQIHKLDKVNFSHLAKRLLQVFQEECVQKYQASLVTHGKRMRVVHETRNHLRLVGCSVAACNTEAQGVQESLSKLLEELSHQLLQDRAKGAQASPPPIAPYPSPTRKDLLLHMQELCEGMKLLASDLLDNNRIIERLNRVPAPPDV

With `C[C@H]1CN(c2ccc(Nc3ncnc(-c4ccc(O[C@H]5CCN(C(=O)[C@@H]6CCC(=O)N6)C[C@H]5F)c(C#N)c4)n3)cc2)CCN1C1COC1` [Example 535, 2-(((3R,4S)-3-fluoro-1-((S)-5-oxopyrrolidine-2-carbonyl)piperidin-4-yl)oxy)-5-(4-((4-((S)-3-methyl-4-(oxetan-3-yl)piperazin-1-yl)phenyl)amino)-1,3,5-triazin-2-yl)benzonitrile], the pIC50 in assay [1] was 6.04; in assay [2], 8.52; in assay [3], 8.52.

With `Cc1cc(Nc2ncnc(-c3ccc(O[C@H]4CCN(C(=O)[C@@H]5CCC(=O)N5)C[C@H]4F)c(C#N)c3)n2)ccc1N1CCN(C2COC2)CC1` [Example 536, 2-(((3R,4S)-3-fluoro-1-((S)-5-oxopyrrolidine-2-carbonyl)piperidin-4-yl)oxy)-5-(4-((3-methyl-4-(4-(oxetan-3-yl)piperazin-1-yl)phenyl)amino)-1,3,5-triazin-2-yl)benzonitrile], the values for the pIC50 in assay [1], in assay [2] and in assay [3] were 7.00, 8.70 and 9.00, respectively.

On to `CC(=O)Nc1ccc(Nc2ncnc(-c3ccc(O[C@H]4CCN(C(=O)[C@@H]5CCC(=O)N5)C[C@H]4F)c(C#N)c3)n2)cn1` [Example 537, N-(5-((4-(3-cyano-4-(((3R,4S)-3-fluoro-1-((S)-5-oxopyrrolidine-2-carbonyl)piperidin-4-yl)oxy)phenyl)-1,3,5-triazin-2-yl)amino)pyridin-2-yl)acetamide], for which the pIC50 was at most 6.00 in assay [1], 8.10 in assay [2] and 7.74 in assay [3].

In the case of `CCOc1ccc(Nc2ncnc(-c3ccc(O[C@H]4CCN(C(=O)[C@@H]5CCC(=O)N5)C[C@H]4F)c(C#N)c3)n2)cn1` [Example 538, 5-(4-((6-ethoxypyridin-3-yl)amino)-1,3,5-triazin-2-yl)-2-(((3R,4S)-3-fluoro-1-((S)-5-oxopyrrolidine-2-carbonyl)piperidin-4-yl)oxy)benzonitrile], the pIC50 in assay [1] is at most 6.00; in assay [2] it was 8.15; in assay [3] it was 7.85.

Take `C[C@H](O)C(=O)N1CC[C@H](Oc2ccc(-c3ncnc(Nc4cccc(CN5CCOCC5)c4)n3)cc2C#N)[C@H](F)C1` [Example 539, 2-(((3R,4S)-3-fluoro-1-((S)-2-hydroxypropanoyl)piperidin-4-yl)oxy)-5-(4-((3-(morpholinomethyl)phenyl)amino)-1,3,5-triazin-2-yl)benzonitrile]: the pIC50 is 6.28 in assay [1], 8.52 in assay [2] and 8.70 in assay [3].

For `CC(=O)Nc1ccc(Nc2ncnc(-c3ccc(O[C@H]4CCN(C(=O)[C@H](C)O)C[C@H]4F)c(C#N)c3)n2)cn1` [Example 540, N-(5-((4-(3-cyano-4-(((3R,4S)-3-fluoro-1-((S)-2-hydroxypropanoyl)piperidin-4-yl)oxy)phenyl)-1,3,5-triazin-2-yl)amino)pyridin-2-yl)acetamide], the negative logarithm of the IC50 (pIC50) in assay [1] was at most 6.00; in assay [2], 7.70; in assay [3], 7.68.

With `CCOc1ccc(Nc2ncnc(-c3ccc(O[C@H]4CCN(C(=O)[C@H](C)O)C[C@H]4F)c(C#N)c3)n2)cn1` [Example 541, 5-(4-((6-ethoxypyridin-3-yl)amino)-1,3,5-triazin-2-yl)-2-(((3R,4S)-3-fluoro-1-((S)-2-hydroxypropanoyl)piperidin-4-yl)oxy)benzonitrile], the pIC50 in assay [1] is at most 6.00; in assay [2], 7.82; in assay [3], 7.77.

Turning to `C[C@@H]1CN(c2ccc(Nc3ncnc(-c4ccc(O[C@H]5CCN(C(=O)[C@@H]6CCC(=O)N6)C[C@H]5F)c(C#N)c4)n3)cc2)CCN1C1COC1` [Example 542, 2-(((3R,4S)-3-fluoro-1-((S)-5-oxopyrrolidine-2-carbonyl)piperidin-4-yl)oxy)-5-(4-((4-((R)-3-methyl-4-(oxetan-3-yl)piperazin-1-yl)phenyl)amino)-1,3,5-triazin-2-yl)benzonitrile], the pIC50 was 6.44 in assay [1], 8.22 in assay [2] and 8.40 in assay [3].
